Assay results taken from US9650403B2, “Platinum (II) compound, preparation method therefor, and pharmaceutical composition and application thereof” (SHANGHAI INSTITUTE OF PHARMACEUTICAL INDUSTRY, priority 2013, dated 2017).

What was measured:
[1] = body weight of ICR mice with transplanted S180 tumor; format: in vivo
Experimental: (§1) 32 ICR mice, male, weight 18-20 g, were supplied by Sippr/Bk Laboratory Animals Ltd, certification: SCXK (shanghai) 2008-2016.
(§2) The ascites of two vigorous growing ICR mice with S180 ascites tumor was extracted under a sterile condition, diluted 6 times with saline water, axilla subcutaneously inoculated with a dosage of 0.2 ml per mouse. The mice were randomly divided into four groups the next day, 8 for each group.
(§3) The groups were blank control group, SIPI-601 60 mg/kg iv group (administered once every three days), SIPI-601 120 mg/kg iv group (administered once every six days), Oxaliplatin 9 mg/kg iv group (administered once every other day).
(§4) The mice were administered the second day after inoculation. After the treatment, the survived animals were euthanatized, the tumors were taken and weighed to calculate anti-tumor rate.

[2] = system: transplanted S180 tumor; test: anti-tumor rate in ICR mice with transplanted S180 tumor; format: in vivo
Experimental: The model of ICR mice with transplanted 5180 sarcoma in vivo was used to determine the anticancer effect of the compound. Specific steps are as follows:
Samples: cis-3-hydroxy-acrylic acid diammine platinum (II), serial number: SIPI-601.
Positive control: Oxaliplatin for injection, Jiangsu Hengrui Medicine Co., Ltd, lot number: 13082811, 50 mg per bottle.
Samples: SIPI-601, which was dissolved by a 10% glucose injection.
Positive control: Oxaliplatin for injection, which was dissolved by a 10% glucose injection.
as §1
Tumor cell trains: two ICR mice with S180 ascites tumor, passage cultured by pharmacological office, Shanghai State Institute of Pharmaceutical Industry (SIPI).
as §2, §3, §4

[3] = system: human breast cancer cell strain Bcap37; test: MTT cytotoxicity on human tumor cell strains in vitro; format: cell-based; conditions: 48 hours
Experimental: (§5) MTT method was employed to test the cytotoxic effect caused by the compound on human tumor cell stains in vitro. Specific steps are as follows:
(§6) The tumor cells (human poorly differentiated gastric cancer cell stain BGC-823, human breast cancer cell strain Bcap37, human oral cancer cell strain KB) was cultured in a 10% calf serum, inoculated into a 96-well plate (2×10^5 cells per well) at 37° C. in an incubator with 5% CO2. The cis-3-hydroxy-acrylic acid diammine platinum (II) was dissolved in DMSO to obtain a solution with a concentration of 10 mg/ml. The solution was diluted to the required concentration with a phosphate buffer, and then added into the wells of the 96-well plate respectively, each concentration was for two wells, 10 μl per well, therefore, each concentration has two parallel tests. DMSO was diluted accordingly in a gradient manner and added into the wells of the 96-well plate as controls.
(§7) After the 96-well plate was kept at 37° C. in the incubator with 5% CO2 for 48 hours, 20 μl 5 mg/ml MTT solution was added into per well. Then the 96-well plate were further kept for 3-4 hours in the incubator at the same temperature. 100 μl solvent was added into per well and the 96-well plate was kept warm in the incubator overnight to make the generated formazan crystals dissolve sufficiently. The light absorption value at 492 nm was determined.
(§8) A relative survival rate of cells was calculated according to the light absorption value after the treatment of the compound. The calculation formula is as follows: […]
(§9) The IC50 of the compound against each kind of tumor cells was calculated though software.

[4] = system: human poorly differentiated gastric cancer cell stain BGC-823; test: as above; format: cell-based; conditions: BGC-823, MTT, 48 hours
Experimental: as §5, §6, §7, §8, §9

[5] = system: human oral cancer cell strain KB; test: as above; format: cell-based; conditions: 48 hours
Experimental: as §5, §6, §7, §8, §9

[6] = water-solubility at room temperature
[7] = 9 mg/kg iv, once every other day
[8] = 60 mg/kg iv, once every three days
[9] = 120 mg/kg iv, once every six days

Compound	The final body weight after the removal of tumor [1, 7]	The anti-tumor rate [2, 7]	The final body weight after the removal of tumor [1, 8]	The final body weight after the removal of tumor [1, 9]	The anti-tumor rate [2, 8]	The anti-tumor rate [2, 9]	IC50 [3]	IC50 [4]	IC50 [5]	water-solubility [6]
O=C1[O][Pt]2([NH][C@@H]3CCCC[C@H]3[NH]2)[O]C1=O [Oxaliplatin, reference compound]	19.92 g	62.42%	–	–	–	–	–	–	–	–
cis-3-hydroxy-acrylic acid diammine platinum (II) [SIPI-601]	–	–	22.46 g	20.34 g	64.39%	66.83%	21.58 µg/mL	2.28 µg/mL	33.94 µg/mL	greater than 25 mg/mL
